# Assays:
# [1] = biological target: T1, P2X7 (Homo sapiens, UniProt Q99572); test: Pore permeation assay (YO PRO dye uptake, BzATP-induced); assay type: cell-based; set-up: expressed in transfected cells; host or cells: HEK293; conditions: HEK293 transfected with human P2X7 receptor, BzATP 10 uM, read-out: hP2X7 IC50
# T1 sequence (Q99572 1-595): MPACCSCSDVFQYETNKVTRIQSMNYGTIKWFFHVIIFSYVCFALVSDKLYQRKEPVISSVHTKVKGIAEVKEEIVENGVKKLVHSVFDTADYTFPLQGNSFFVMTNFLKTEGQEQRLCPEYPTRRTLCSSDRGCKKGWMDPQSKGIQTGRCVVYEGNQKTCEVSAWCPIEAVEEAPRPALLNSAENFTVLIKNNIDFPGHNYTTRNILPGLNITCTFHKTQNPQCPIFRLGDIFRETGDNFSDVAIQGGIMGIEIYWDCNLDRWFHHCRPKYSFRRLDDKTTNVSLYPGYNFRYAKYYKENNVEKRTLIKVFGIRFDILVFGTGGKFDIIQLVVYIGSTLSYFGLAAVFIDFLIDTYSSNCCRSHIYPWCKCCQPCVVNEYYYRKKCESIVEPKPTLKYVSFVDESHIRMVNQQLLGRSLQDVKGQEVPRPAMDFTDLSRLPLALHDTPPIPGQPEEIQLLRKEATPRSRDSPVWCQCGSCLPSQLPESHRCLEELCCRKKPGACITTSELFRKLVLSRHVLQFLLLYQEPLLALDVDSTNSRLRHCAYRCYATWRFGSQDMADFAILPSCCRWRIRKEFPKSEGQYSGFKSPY
# Procedure: Agonist-induced pore formation was determined by measuring cellular uptake of YO PRO fluorescence dye in HEK293 transfected with human P2X7 receptor. A HEK293 cell over expressing human P2X7 was harvested using HQTase reagent to detach the cells from T75 cm flask. The harvested cells are centrifuged @1200 rpm for 5 min at room temperature. The viability of cells was determined by Trypan blue dye and the cells are plated @10,000 cell/well in 50 ul volume in a 384W BD Poly lysine coated plate and incubated overnight at 37 C. After overnight incubation, the culture medium was replaced with 35 ul/well assay buffer (5 mM KCl, 0.1 mM CaCl2, 5 mM Glucose, 10 mM HEPES buffer pH7.4 containing 125 mM NaCl. The serial dilution of compounds was performed using Bravo liquid handling instrument and the compounds were added using Bravo to the cell assay plate starting at 2.5 uM with three dilutions for 10 points. The positive control inhibitor compound was added to column 23. The plate was shaken slowly on a plate shaker for 10 seconds. The cells were incubated with the compound for 20 minutes at room temperature. After the incubation period, YO PRO dye (1 uM) along with BzATP (10 uM) were added to cells at 10 ul/well. The plate was centrifuged at 1000 rpm for 5 seconds and incubated at room temperature for 30 minutes. The uptake of YO PRO dye into the cells was measured using Envision Fluorescence plate reader instrument (Perkin Elmer).
# [2] = biological target: T1, P2X7; test: IL-1β release assay in THP-1 cells (sandwich ELISA, BzATP-stimulated); assay type: cell-based; set-up: endogenous in cells; host or cells: THP-1 cells (PMA-differentiated, LPS-primed); conditions: LPS primed, 0.8 mM BzATP, mature IL-1β release, read-out: hTHP-1/IL-ib IC50
# Procedure: IL-1β release assay: The activation of P2X7 by ATP leads to a fast transient activation of cells resulting in influx of Ca^2+ followed by conversion of pro-IL-1β to active IL-1β. The functional activity of P2X7 compounds was measured by the release of mature IL-1β in the culture medium of THP-1 cells, detected by sandwich ELISA. Cells were maintained in complete growth medium (RPMI 1640+10% HI-FCS+2 mM L-glutamine+1× PS). […] THP-1 cells were harvested from the flask in 50 ml by centrifugation for 3 min at 100 g. The cells were resuspended to 2×10^5 cells/ml in medium supplemented with 0.5 μM PMA and incubated. The cells were washed and resuspended to 1.5×10^5 cells/ml in medium complemented with 10 ng/ml LPS, and the cells were primed for 4 h at 37° C., 5% CO2. After addition of 20 μL of prediluted test compounds, blank, standard and control reagents, cells were incubated for a further 20 min at 37° C. and stimulated with 0.8 mM BzATP for 30 minutes. The cells were centrifuged, supernatant was collected and the presence of mature IL-1β was detected using Dual human IL-1b kit following manufacturer's instruction. The tetrahydrobenzodiazepine analogs effectively modulated the activity of P2X7 in the cells as measured by the levels of pro-inflammatory cytokine IL-1β, which is released by the activation of P2X7 receptor.
Compound,IC50 [1] [nM],IC50 [2] [nM]
"COCCc1cc(C(=O)NCC2(O)CCC(F)(F)C(C)C2)c2c(Cl)cccn12 (centres unmarked) [Compound 43, 8-chloro-N-((4,4-difluoro-1-hydroxy-3-methylcyclohexyl)methyl)-3-(2-methoxyethyl)indolizine-1-carboxamide]",10 to 100,101 to 500
"O=C(NCC1CCCC(F)(F)C1)c1cc(CCO)n2cccc(Cl)c12 (centres unmarked) [Compound 45, 8-chloro-N-((3,3-difluorocyclohexyl)methyl)-3-(2-hydroxyethyl)indolizine-1-carboxamide]",10 to 100,101 to 500
"O=C(NCC1(O)CCC(F)(F)CC1)c1cc(CC2CCOC2)n2cccc(Cl)c12 (centres unmarked) [Compound 47, 8-chloro-N-((4,4-difluoro-1-hydroxycyclohexyl)methyl)-3-((tetrahydrofuran-3-yl)methyl)indolizine-1-carboxamide]",10 to 100,10 to 100
"O=C(NCC1(O)CCC(F)(F)CC1)c1cc(C2CCCO2)n2cccc(Cl)c12 (centres unmarked) [Compound 48, 8-Chloro-3-(tetrahydro-furan-2-yl)-indolizine-1-carboxylic Acid (4,4-difluoro-1-hydroxycyclohexyl methyl)-amide]",10 to 100,10 to 100
"O=C(NCC1CCC(F)(F)CC1)c1cc(CCO)n2cccc(Cl)c12 [Compound 51, 8-chloro-N-((4,4-difluorocyclohexyl)methyl)-3-(2-hydroxyethyl)indolizine-1-carboxamide]",10 to 100,101 to 500
"COCCc1cc(C(=O)NCC2(O)CCC(F)(F)CC2)c2c(Cl)cccn12 [Compound 53, 8-chloro-N-((4,4-difluoro-1-hydroxycyclohexyl)methyl)-3-(2-methoxyethyl)indolizine-1-carboxamide]",10 to 100,10 to 100
"O=C(NCC1(O)CCCC(F)(F)C1)c1cc(C2CCCO2)n2cccc(Cl)c12 (centres unmarked) [Compound 54, 8-Chloro-3-(tetrahydro-furan-2-yl)-indolizine-1-carboxylic Acid (3,3-difluoro-1-hydroxycyclohexyl methyl)-amide]",< 10,10 to 100
"COCCc1cc(C(=O)NCC2(O)CCCC(F)(F)C2)c2c(C)cccn12 (centres unmarked) [Compound 57, 3-(2-Methoxy-ethyl)-8-methyl-indolizine-1-carboxylic Acid (3,3-difluoro-1-hydroxy-cyclohexylmethyl)-amide]",101 to 500,101 to 500
"COCCc1cc(C(=O)NCC2(O)CCCC(F)(F)C2)c2c(C(F)(F)F)cccn12 (centres unmarked) [Compound 60, 3-(2-Methoxy-ethyl)-8-trifluoro methylindolizine-1-carboxylic Acid (3,3-difluoro-1-hydroxy-cyclohexylmethyl)-amide]",101 to 500,10 to 100
"O=C(NCC1(O)CCC(F)(F)CC1)c1cc(C2CCOC2)n2cccc(Cl)c12 (centres unmarked) [Compound 61, 8-chloro-N-((4,4-difluoro-1-hydroxycyclohexyl)methyl)-3-(tetrahydrofuran-3-yl)indolizine-1-carboxamide]",10 to 100,10 to 100
"COCCc1cc(C(=O)NCC2(O)CCCC(F)(F)C2)c2c(Cl)cccn12 (centres unmarked) [Compound 62, 8-Chloro-3-(2-methoxy-ethyl)-indolizine-1-carboxylic Acid (3,3-difluoro-1-hydroxycyclohexylmethyl)-amide]",< 10,10 to 100
"COCCc1cc(C(=O)NC[C@]2(O)CCCC(F)(F)C2)c2c(Cl)cccn12 [Compound 64, 8-Chloro-3-(2-methoxy-ethyl)-indolizine-1-carboxylic Acid ((S)-3,3-difluoro-1-hydroxy-cyclohexylmethyl)-amide]",10 to 100,101 to 500
"O=C(NCC1(O)CCCC(F)(F)C1)c1cc(C2CCOC2)n2cccc(Cl)c12 (centres unmarked) [Compound 65, 8-Chloro-3-(tetrahydro-furan-3-yl)-indolizine-1-carboxylic Acid (3,3-difluoro-1-hydroxycyclohexyl methyl)-amide]",10 to 100,10 to 100
"O=C(NC[C@@]1(O)CCCC(F)(F)C1)c1cc(C2CCOC2)n2cccc(Cl)c12 (stereo partly drawn) [Compound 66, 8-chloro-N—(((R)-3,3-difluoro-1-hydroxycyclohexyl)methyl)-3-(tetrahydrofuran-3-yl)indolizine-1-carboxamide]",10 to 100,101 to 500
"O=C(NC[C@]1(O)CCCC(F)(F)C1)c1cc(C2CCOC2)n2cccc(Cl)c12 (stereo partly drawn) [Compound 67, 8-chloro-N—(((S)-3,3-difluoro-1-hydroxycyclohexyl)methyl)-3-(tetrahydrofuran-3-yl)indolizine-1-carboxamide]",10 to 100,10 to 100
"CCOCCc1cc(C(=O)NCC2(O)CCC(F)(F)CC2)c2c(Cl)cccn12 [Compound 69, 8-Chloro-3-(2-ethoxy-ethyl)-indolizine-1-carboxylic Acid (4,4-difluoro-1-hydroxy-cyclohexylmethyl)-amide]",101 to 500,101 to 500
"CCOCCc1cc(C(=O)NCC2(O)CCCC(F)(F)C2)c2c(Cl)cccn12 (centres unmarked) [Compound 70, 8-Chloro-3-(2-ethoxy-ethyl)-indolizine-1-carboxylic Acid (3,3-difluoro-1-hydroxy-cyclohexylmethyl)-amide]",10 to 100,10 to 100
"C[C@@H]1CCC[C@](O)(CNC(=O)c2cc(C3CCC3)n3cccc(Cl)c23)C1 [Compound 71, 8-chloro-3-cyclobutyl-N-(((1R,3R)-1-hydroxy-3-methylcyclohexyl)methyl) indolizine-1-carboxamide]",10 to 100,10 to 100
[2H]C([2H])([2H])OCCc1cc(C(=O)NCC2CCC(F)(F)CC2)c2c(Cl)cccn12 [Compound 72],10 to 100,10 to 100
CCOCCc1cc(C(=O)NC[C@@]2(O)CCC[C@@H](C)C2)c2c(Cl)cccn12 [Compound 73],10 to 100,10 to 100
"(R)-8-chloro-N-((4,4-difluoro-1-hydroxycyclohexyl)methyl)-3-((tetrahydrofuran-3-yl)methyl)indolizine-1-carboxamide [Compound 50]",10 to 100,101 to 500
"(S)-8-chloro-N-((4,4-difluoro-1-hydroxycyclohexyl)methyl)-3-((tetrahydrofuran-3-yl)methyl)indolizine-1-carboxamide [Compound 52]",10 to 100,10 to 100

# — patent publication US9931324B2, “Indolizine derivatives and their use in neurodegenerative diseases” (Merck Patent GmbH, priority 2014, dated 2018)
